Assay [1] addresses memapsin 2 (Homo sapiens, UniProt P56817). Briefly: Inhibition of memapsin 2 catalytic activity (Ki). Format: biochemical. The following applies: memapsin 2, pH 4, 37° C.; read-out: M2K. In a few lines:
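Run at 37 °C and pH 4: compound and enzyme pre-incubated 20 min before FS-2 fluorogenic substrate started hydrolysis,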

The target of assay [2] is cathepsin D (Homo sapiens, UniProt P07339). Briefly: Inhibition of cathepsin D catalytic activity (Ki). The settings on record: pH 4.0, 37° C., read-out: CDK. Format: biochemical.
For assay [3], the target named is T1, memapsin 1 (Homo sapiens, UniProt Q9Y5Z0).
T1 sequence (Q9Y5Z0 63-518): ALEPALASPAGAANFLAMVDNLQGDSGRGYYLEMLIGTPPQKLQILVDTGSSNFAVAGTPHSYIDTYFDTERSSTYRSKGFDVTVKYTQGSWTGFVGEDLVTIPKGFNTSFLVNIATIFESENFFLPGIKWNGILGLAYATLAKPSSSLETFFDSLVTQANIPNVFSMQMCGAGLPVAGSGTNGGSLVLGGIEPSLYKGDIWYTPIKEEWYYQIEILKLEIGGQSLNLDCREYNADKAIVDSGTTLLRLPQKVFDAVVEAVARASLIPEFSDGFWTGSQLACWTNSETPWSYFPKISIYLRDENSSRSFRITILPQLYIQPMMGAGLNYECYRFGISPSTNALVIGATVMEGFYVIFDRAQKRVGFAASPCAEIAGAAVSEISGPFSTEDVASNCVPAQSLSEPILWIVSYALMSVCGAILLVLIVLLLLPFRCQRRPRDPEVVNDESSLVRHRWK
Briefly: Inhibition of memapsin 1 catalytic activity (Ki). The settings on record: memapsin 1, pH 4.0, 37° C.; read-out: M1K. The class given is biochemical.

Assay [4] has as its system Aβ production in Chinese hamster ovary cells that over-express human APP695 with the London and Swedish mutations. Description: Cellular Aβ IC50 determination (Aβ40 sandwich ELISA). The following applies: Cricetulus griseus, CHO, 24 h, read-out: Cell, Aβ40, CHO cells over-expressing human APP695 (London and Swedish mutations), 24 h. In general terms: In an ELISA, binding on a coated surface is turned into a signal by an enzyme label.

Chain of memapsin 2 (P56817 46-501): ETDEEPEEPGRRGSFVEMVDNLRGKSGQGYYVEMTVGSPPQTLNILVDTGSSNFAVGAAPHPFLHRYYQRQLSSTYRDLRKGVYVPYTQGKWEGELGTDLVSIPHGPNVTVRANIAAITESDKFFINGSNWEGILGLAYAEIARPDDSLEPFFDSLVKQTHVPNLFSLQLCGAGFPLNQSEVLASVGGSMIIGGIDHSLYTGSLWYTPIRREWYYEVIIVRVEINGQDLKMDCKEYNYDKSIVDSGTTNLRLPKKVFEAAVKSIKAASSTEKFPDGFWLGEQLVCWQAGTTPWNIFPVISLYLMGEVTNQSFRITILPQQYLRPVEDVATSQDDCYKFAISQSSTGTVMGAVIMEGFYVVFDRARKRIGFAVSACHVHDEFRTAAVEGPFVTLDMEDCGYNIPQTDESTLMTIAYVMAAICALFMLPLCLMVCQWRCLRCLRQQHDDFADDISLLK
Chain of cathepsin D (P07339 65-412, species assumed): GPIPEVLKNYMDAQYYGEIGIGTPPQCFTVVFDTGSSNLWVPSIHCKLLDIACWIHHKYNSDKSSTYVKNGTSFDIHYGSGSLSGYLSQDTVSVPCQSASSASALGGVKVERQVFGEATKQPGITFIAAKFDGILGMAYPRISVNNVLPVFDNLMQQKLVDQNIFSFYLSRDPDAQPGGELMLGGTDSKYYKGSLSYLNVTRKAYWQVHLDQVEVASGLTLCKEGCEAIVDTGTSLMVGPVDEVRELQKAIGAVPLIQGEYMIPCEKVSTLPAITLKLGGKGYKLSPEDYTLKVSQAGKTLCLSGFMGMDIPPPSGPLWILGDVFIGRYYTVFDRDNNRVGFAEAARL

In the case of `COc1cccc(CNCC(O)C(Cc2ccccc2)NC(=O)c2cc(C(=O)NC(C)c3nc(C)oc3C)cc(N(C)S(C)(=O)=O)c2)c1` (stereo not shown) [N1-(1-(2,5-dimethyloxazol-4-yl)ethyl)-N3-(3-hydroxy-4-(3-methoxybenzylamino)-1-phenylbutan-2-yl)-5-(N-methylmethylsulfonamido)isophthalamide], the Ki in assay [1], in assay [2] and in assay [3] was over 501 nM in each case. For the same molecule, the IC50 in assay [4] was in the range of 1000 to 5000 nM.
On to `CCC(NCC(O)C(Cc1ccccc1)NC(=O)c1cc(C(=O)NC(C)c2ccccc2)cc(N(C)S(C)(=O)=O)c1)c1ccccc1` (stereo not shown) [N1-(3-hydroxy-1-phenyl-4-(1-phenylpropylamino)butan-2-yl)-5-(N-methylmethylsulfonamido)-N3-(1-phenylethyl)isophthalamide], for which the Ki in assay [1], in assay [2] and in assay [3] was under 300 nM throughout. In assay [4], the IC50 was under 1000 nM.
For `COc1cccc(CNCC(O)C(Cc2ccccc2)NC(=O)c2cc(C(=O)NCc3ccccc3)cc(N(C)S(C)(=O)=O)c2)c1` (stereo not shown) [N1-benzyl-N3-(3-hydroxy-4-(3-methoxybenzylamino)-1-phenylbutan-2-yl)-5-(N-methylmethylsulfonamido)isophthalamide], the Ki in assay [1] was under 300 nM; in assay [2] it was under 300 nM; in assay [3] it was over 501 nM. In addition, in assay [4], the IC50 is under 1000 nM.
In the case of `CCC(NCC(O)C(Cc1ccccc1)NC(=O)c1cccc(C(=O)N(C)Cc2nc(C)cs2)c1)c1ccccc1` (stereo not shown) [N1-(3-hydroxy-1-phenyl-4-(1-phenylpropylamino)butan-2-yl)-N3-methyl-N3-((4-methylthiazol-2-yl)methyl)isophthalamide], the Ki in assay [1] is over 501 nM; in assay [2] it was under 300 nM; in assay [3] it was over 501 nM. Moreover, in assay [4], the IC50 fell in the range of 1000 to 5000 nM.
For `Cc1csc(CN(C)C(=O)c2cccc(C(=O)NC(Cc3ccccc3)C(O)CNCc3cccc(F)c3)c2)n1` (stereo not shown) [N1-(4-(3-fluorobenzylamino)-3-hydroxy-1-phenylbutan-2-yl)-N3-methyl-N3-((4-methylthiazol-2-yl)methyl)isophthalamide], the values for the Ki in assay [1], in assay [2] and in assay [3] were over 501 nM, under 300 nM and over 501 nM, respectively. Also, in assay [4], the IC50 is under 1000 nM.
For the molecule `CC(NC(=O)c1cc(C(=O)NC(Cc2ccccc2)C(O)CNCc2ccccn2)cc(N(C)S(C)(=O)=O)c1)c1ccccc1` (stereo not shown) [N1-(3-hydroxy-1-phenyl-4-(pyridin-2-ylmethylamino)butan-2-yl)-5-(N-methylmethylsulfonamido)-N3-(1-phenylethyl)isophthalamide], the Ki in assay [1] is under 300 nM; in assay [2], over 501 nM; in assay [3], over 501 nM. The IC50 in assay [4] is under 1000 nM.
For the molecule `COc1cccc(CNCC(O)C(Cc2ccccc2)NC(=O)c2cccc(C(=O)NC(C)c3cccnc3)c2)c1` (stereo not shown) [N1-(3-hydroxy-4-(3-methoxybenzylamino)-1-phenylbutan-2-yl)-N3-(1-(pyridin-3-yl)ethyl)isophthalamide], the Ki in assay [1], in assay [2] and in assay [3] was over 501 nM throughout. In addition, the IC50 in assay [4] is over 5000 nM.
For the molecule `CC(NC(=O)c1cc(C(=O)NC(Cc2ccccc2)C(O)CNCc2cccc(F)c2)cc(N(C)S(C)(=O)=O)c1)c1ccccc1` (stereo not shown) [N1-(4-(3-fluorobenzylamino)-3-hydroxy-1-phenylbutan-2-yl)-5-(N-methylmethylsulfonamido)-N3-(1-phenylethyl)isophthalamide], the Ki in assay [1] was under 300 nM; in assay [2], 301 to 500 nM; in assay [3], over 501 nM. In assay [4], the IC50 is under 1000 nM.
For the molecule `COc1cccc(CNCC(O)C(Cc2ccccc2)NC(=O)c2cc(C(=O)NCc3cccc(OC)c3)cc(N(C)S(C)(=O)=O)c2)c1` (stereo not shown) [N1-(3-hydroxy-4-(3-methoxybenzylamino)-1-phenylbutan-2-yl)-N3-(3-methoxybenzyl)-5-(N-methylmethylsulfonamido)isophthalamide], the Ki in assay [1] is under 300 nM; in assay [2] it was under 300 nM; in assay [3] it was over 501 nM. The IC50 in assay [4] lay in the range of 1000 to 5000 nM.
On to `Cc1cncc(CNCC(O)C(Cc2ccccc2)NC(=O)c2cc(C(=O)NC(C)c3ccccc3)cc(N(C)S(C)(=O)=O)c2)c1` (stereo not shown) [N1-(3-hydroxy-4-((5-methylpyridin-3-yl)methylamino)-1-phenylbutan-2-yl)-5-(N-methylmethylsulfonamido)-N3-(1-phenylethyl)isophthalamide], for which the values for the Ki in assay [1], in assay [2] and in assay [3] were under 300 nM, under 300 nM and 301 to 500 nM, respectively. The IC50 in assay [4] is under 1000 nM.
On to `COc1cccc(CNCC(O)C(Cc2ccccc2)NC(=O)c2cc(C(=O)NC(C)c3ccc(F)cc3)cc(N(C)S(C)(=O)=O)c2)c1` (stereo not shown) [N1-(1-(4-fluorophenyl)ethyl)-N3-(3-hydroxy-4-(3-methoxybenzylamino)-1-phenylbutan-2-yl)-5-(N-methylmethylsulfonamido)isophthalamide], for which the Ki in assay [1], in assay [2] and in assay [3] was under 300 nM in each case. Besides, the IC50 in assay [4] was under 1000 nM.
As for `CC(NC(=O)c1cc(C(=O)NC(Cc2ccccc2)C(O)CNN(C)c2ccccc2)cc(N(C)S(C)(=O)=O)c1)c1ccccc1` (stereo not shown) [N1-(3-hydroxy-4-(2-methyl-2-phenylhydrazinyl)-1-phenylbutan-2-yl)-5-(N-methylmethylsulfonamido)-N3-(1-phenylethyl)isophthalamide], the values for the Ki in assay [1], in assay [2] and in assay [3] were 301 to 500 nM, over 501 nM and over 501 nM, respectively. Besides, the IC50 in assay [4] was over 5000 nM.
Consider `CC(NC(=O)c1cc(C(=O)NC(Cc2ccccc2)C(O)CNCc2ccncc2)cc(N(C)S(C)(=O)=O)c1)c1ccccc1` (stereo not shown) [N1-(3-hydroxy-1-phenyl-4-(pyridin-4-ylmethylamino)butan-2-yl)-5-(N-methylmethylsulfonamido)-N3-(1-phenylethyl)isophthalamide], for which the Ki was under 300 nM in assay [1], over 501 nM in assay [2] and 301 to 500 nM in assay [3]. Further, the IC50 in assay [4] is under 1000 nM.
`CC(NC(=O)c1cc(C(=O)NC(Cc2ccccc2)C(O)CNCc2cccnc2)cc(N(C)S(C)(=O)=O)c1)c1ccccc1` (stereo not shown) [N1-(3-hydroxy-1-phenyl-4-(pyridin-3-ylmethylamino)butan-2-yl)-5-(N-methylmethylsulfonamido)-N3-(1-phenylethyl)isophthalamide]: the Ki was under 300 nM in assay [1], over 501 nM in assay [2] and 301 to 500 nM in assay [3]. Further, the IC50 in assay [4] is under 1000 nM.
`CC(NC(=O)c1cc(C(=O)NC(Cc2ccccc2)C(O)CNCc2ccccc2)cc(N(C)S(C)(=O)=O)c1)c1ccccc1` (stereo not shown) [N1-(4-(benzylamino)-3-hydroxy-1-phenylbutan-2-yl)-5-(N-methylmethylsulfonamido)-N3-(1-phenylethyl)isophthalamide]: the Ki in assay [1], in assay [2] and in assay [3] was under 300 nM each time. Also, in assay [4], the IC50 is under 1000 nM.
For the molecule `COc1cccc(CNCC(O)C(Cc2ccccc2)NC(=O)c2cccc(C(=O)N(C)Cc3nc(C)cs3)c2)c1` (stereo not shown) [N1-(3-hydroxy-4-(3-methoxybenzylamino)-1-phenylbutan-2-yl)-N3-methyl-N3-((4-methylthiazol-2-yl)methyl)isophthalamide], the Ki in assay [1] was under 300 nM; in assay [2], under 300 nM; in assay [3], over 501 nM. Besides, the IC50 in assay [4] was under 1000 nM.
As to `Cc1csc(CN(C)C(=O)c2cccc(C(=O)NC(Cc3ccccc3)C(O)CNCc3cccc(C(F)(F)F)c3)c2)n1` (stereo not shown) [N1-(3-hydroxy-1-phenyl-4-(3-(trifluoromethyl)benzylamino)butan-2-yl)-N3-methyl-N3-((4-methylthiazol-2-yl)methyl)isophthalamide], the results for the Ki in assay [1], in assay [2] and in assay [3] were under 300 nM, under 300 nM and over 501 nM, respectively. Also, the IC50 in assay [4] is under 1000 nM.
Take `CC(NC(=O)c1cc(C(=O)NC(Cc2ccccc2)C(O)CNCc2ccccc2O)cc(N(C)S(C)(=O)=O)c1)c1ccccc1` (stereo not shown) [N1-(3-hydroxy-4-(2-hydroxybenzylamino)-1-phenylbutan-2-yl)-5-(N-methylmethylsulfonamido)-N3-(1-phenylethyl)isophthalamide]: the Ki in assay [1], in assay [2] and in assay [3] was under 300 nM in each case. Besides, the IC50 in assay [4] is under 1000 nM.
With `Cc1csc(CN(C)C(=O)c2cccc(C(=O)NC(Cc3ccccc3)C(O)CNCc3cncc(C(C)C)c3)c2)n1` (stereo not shown) [N1-(3-hydroxy-4-((5-isopropylpyridin-3-yl)methylamino)-1-phenylbutan-2-yl)-N3-methyl-N3-((4-methylthiazol-2-yl)methyl)isophthalamide], the results for the Ki in assay [1], in assay [2] and in assay [3] were under 300 nM, under 300 nM and 301 to 500 nM, respectively. The IC50 in assay [4] is under 1000 nM.

Source of the values: US7504420B2, “Compounds which inhibit beta-secretase activity and methods of use” (CoMentis, Inc., priority 2005, dated 2009).
